Values quoted from earlier work, collected in patent US8481599B2, “Compositions and methods for increasing compliance with therapies using aldehyde dehydrogenase inhibitors and treating alcoholism” (Tonix Pharmaceuticals Inc., priority 2001, dated 2013).
Read-outs that look alike come from different tables or passages of the source.

Key:
[1] = target: T1, ALDH-I (Homo sapiens, UniProt P05091)
T1 sequence (P05091 18-517): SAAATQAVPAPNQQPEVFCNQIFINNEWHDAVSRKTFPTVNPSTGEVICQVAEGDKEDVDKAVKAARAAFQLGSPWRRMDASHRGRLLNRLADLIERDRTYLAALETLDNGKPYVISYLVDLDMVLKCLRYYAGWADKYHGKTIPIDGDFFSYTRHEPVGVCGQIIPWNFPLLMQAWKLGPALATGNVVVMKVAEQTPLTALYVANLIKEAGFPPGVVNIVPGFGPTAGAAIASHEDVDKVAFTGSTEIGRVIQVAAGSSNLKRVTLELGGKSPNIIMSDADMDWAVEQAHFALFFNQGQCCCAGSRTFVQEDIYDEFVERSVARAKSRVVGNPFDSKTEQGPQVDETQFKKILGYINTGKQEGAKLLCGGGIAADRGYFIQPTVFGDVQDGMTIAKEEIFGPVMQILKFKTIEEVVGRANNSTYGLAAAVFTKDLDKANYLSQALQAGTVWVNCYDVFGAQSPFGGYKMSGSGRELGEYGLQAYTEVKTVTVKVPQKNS

[2] = target: T2, ALDH-II (Homo sapiens, UniProt P00352); details: in vitro
T2 sequence (P00352 1-501): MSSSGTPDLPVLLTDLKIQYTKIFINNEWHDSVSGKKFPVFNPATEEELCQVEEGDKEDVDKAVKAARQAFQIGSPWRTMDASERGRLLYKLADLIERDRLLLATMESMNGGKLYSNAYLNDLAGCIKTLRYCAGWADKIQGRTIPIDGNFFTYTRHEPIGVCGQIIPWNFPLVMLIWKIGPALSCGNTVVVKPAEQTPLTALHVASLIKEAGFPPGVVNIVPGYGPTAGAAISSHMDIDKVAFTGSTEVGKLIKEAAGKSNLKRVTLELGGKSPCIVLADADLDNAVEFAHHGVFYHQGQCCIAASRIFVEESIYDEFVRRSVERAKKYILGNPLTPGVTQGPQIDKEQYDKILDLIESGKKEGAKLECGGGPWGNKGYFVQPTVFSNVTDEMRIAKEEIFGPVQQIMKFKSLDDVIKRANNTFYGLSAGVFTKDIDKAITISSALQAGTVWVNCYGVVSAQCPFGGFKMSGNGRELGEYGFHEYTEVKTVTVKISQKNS

[3] = rat studies
[4] = tested on: ALDH; details: rat studies

For `O=c1c(-c2ccc(O)cc2)coc2cc(O[C@@H]3O[C@H](CO)[C@@H](O)[C@H](O)[C@H]3O)ccc12` [Daidzin], the “inhibition of ALDH-I” value [1] is listed as “selective potent reversible inhibitor”.

In the case of `N#CN` [cyanamide], the “inhibition of ALDH-I” value ([1]; in vitro) is listed as “unable to inhibit” and the “inhibition of ALDH-II” value [2] is listed as “unable to inhibit”.

In the case of “N5-(hydroxycyclopropyl)-L-glutamine [coprine]”, the “suppression of ethanol consumption” value [3] is given as “effectively suppressed ethanol consumption” and the “potency as ALDH inhibitor relative to disulfiram” value [4] is given as “more potent inhibitor of ALDH as compared to disulfiram”.
